The values that follow come from patent US12448382B2, “Heterocyclic compounds for mediating tyrosine kinase 2 activity” (GUANGZHOU INNOCARE PHARMA TECH CO., LTD., priority 2019, dated 2025).

Where two headings read alike, the source gives them in different places.

The target of assay [1] is T1, human recombinant JAK2 protein (Homo sapiens, UniProt O60674).
T1 construct: purchased Carna Biosciences 08-045
Put plainly: JAK2 Inhibition Assay (HTRF kinase assay). It is filed as biochemical. Conditions: human recombinant JAK2, 2.5 μM ATP substrate solution. The essentials:
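Recombinant human JAK2 was preincubated 15 min at room temperature with compound in buffer containing 5 mM MgCl2, 1 mM DTT and 0.01% Brij35. Substrate solution (2.5 μM ATP, 0.25 μM biotinylated TK substrate) was then added for 30 min. Phosphorylation was detected by HTRF (665/620 nm ratio; no-enzyme = 100% inhibition), and IC50 was fitted from an 8-point, 4-fold series.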
In general terms: In TR-FRET formats the signal depends on donor and acceptor labels being close together.

The target in assay [2] is T2, human recombinant TYK2 protein (Homo sapiens, UniProt P29597).
T2 construct: purchased Carna Biosciences 08-147
T2 sequence (P29597 871-1187 limits assumed): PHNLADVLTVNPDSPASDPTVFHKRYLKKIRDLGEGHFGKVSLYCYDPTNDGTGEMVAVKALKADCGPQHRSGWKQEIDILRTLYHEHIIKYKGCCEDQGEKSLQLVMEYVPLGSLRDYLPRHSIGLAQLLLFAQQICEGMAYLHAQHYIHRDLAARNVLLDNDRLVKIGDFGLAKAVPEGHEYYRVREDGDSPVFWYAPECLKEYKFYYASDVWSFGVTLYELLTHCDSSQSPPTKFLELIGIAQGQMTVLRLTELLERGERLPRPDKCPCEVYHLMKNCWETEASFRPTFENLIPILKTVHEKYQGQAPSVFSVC
The assay is described as follows: TYK2 Inhibition Assay (HTRF kinase assay). Conditions: human recombinant TYK2, 11.25 μM ATP substrate solution. The assay is classed as biochemical. The essentials:
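Recombinant human TYK2 was pre-incubated 15 min at room temperature with compound, then reacted for 40 min with biotinylated tyrosine-kinase substrate and ATP (substrate solution 11.25 μM ATP, 0.5 μM substrate; 5 mM MgCl2, 0.01% Brij35). Phosphorylation was read by HTRF 665/620 ratio, normalised to no-enzyme and no-compound controls, and IC50 was fitted from 8 4-fold dilutions.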

In assay [3] the test system is IL-12-induced IFN-γ secretion in NK92 cells. The assay is described as follows: Inhibition of IL-12-induced IFN-γ Secretion in NK92 Cells (ELISA). The settings on record: 24 hours incubation, 8 concentration points, read-out: IC50 (NK92_IL12/IFNγ). The assay is classed as cell-based, human. The essentials:
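NK92 cells (100,000/well, IL-2-free medium) rested overnight, then treated with compound plus IL-12 for 24 h at 37 °C. Secreted IFN-γ measured in supernatant by ELISA. Inhibition normalized to unstimulated and IL-12/0.2% DMSO controls; IC50 fitted from 8 concentrations.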

T1 sequence (O60674 826-1132 limits assumed): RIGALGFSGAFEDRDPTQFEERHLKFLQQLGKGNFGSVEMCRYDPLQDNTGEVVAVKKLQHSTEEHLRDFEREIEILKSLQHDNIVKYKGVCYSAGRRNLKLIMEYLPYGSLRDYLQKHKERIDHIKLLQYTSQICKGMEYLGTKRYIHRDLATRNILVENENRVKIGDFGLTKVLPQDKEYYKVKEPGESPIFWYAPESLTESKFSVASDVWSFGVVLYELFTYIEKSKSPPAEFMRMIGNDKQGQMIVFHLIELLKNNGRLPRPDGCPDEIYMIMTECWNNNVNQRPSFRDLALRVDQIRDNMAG

Regarding `Cn1cc(Nc2ncc(Cl)c(N3C[C@]4(C)CN(C(=O)C5CC5)C[C@]4(C)C3)n2)cn1` [Compound 12, ((3aR,6aS)-5-(5-chloro-2-((1-methyl-1H-pyrazol-4-yl)amino)pyrimidin-4-yl)-3a,6a-dimethylhexahydropyrrolo[3,4-c]pyrrol-2(1H)-yl)(cyclopropyl)methanone], the IC50 in assay [1] came to 4.2 nM; in assay [2] it was 1.1 nM; in assay [3] (Homo sapiens) it was 419 nM.
The corresponding values for `Cn1cc(Nc2ncc(Cl)c(N3C[C@]4(C)CN(CC#N)C[C@]4(C)C3)n2)cn1` [Compound 85, 2-((3aR,6aS)-5-(5-chloro-2-((1-methyl-1H-pyrazol-4-yl)amino)pyrimidin-4-yl)-3a,6a-dimethylhexahydropyrrolo[3,4-c]pyrrol-2(1H)-yl)acetonitrile] are 1.7 nM, 2.4 nM and 5350 nM.
As to `Cn1cc(Nc2ncc(Cl)c(N3C[C@H]4CN(C(=O)CC#N)C[C@H]4C3)n2)cn1` [Compound 26, 3-((3aR,6aS)-5-(5-chloro-2-((1-methyl-H-pyrazol-4-yl)amino)pyrimidin-4-yl)hexahydropyrrolo[3,4-c]pyrrol-2(1H)-yl)-3-oxopropanenitrile], the IC50 in assay [1] was determined as 10 nM; in assay [2] it was 6.1 nM; in assay [3] (Homo sapiens), 652 nM.
The corresponding values for `Cc1cc(CN2C[C@@]3(C)CN(c4nc(Nc5cnn(C)c5)ncc4Cl)C[C@@]3(C)C2)on1` [Compound 78, 5-chloro-4-((3aR,6aS)-3a,6a-dimethyl-5-((3-methylisoxazol-5-yl)methyl)hexahydropyrrolo[3,4-c]pyrrol-2(1H)-yl)-N-(1-methyl-1H-pyrazol-4-yl)pyrimidin-2-amine] are 7.6 nM, 4.2 nM and 2760 nM.
The corresponding values for `Cn1cc(Nc2ncc(Cl)c(N3C[C@]4(C)CN(c5ccno5)C[C@]4(C)C3)n2)cn1` [Compound 66] are 0.3 nM, 0.2 nM and 66 nM.
For `Cc1noc(CN2C[C@@]3(C)CN(c4nc(Nc5cnn(C)c5)ncc4Cl)C[C@@]3(C)C2)n1` [Compound 82, 5-chloro-4-((3aR,6aS)-3a,6a-dimethyl-5-((3-methyl-1,2,4-oxadiazol-5-yl)methyl)hexahydropyrrolo[3,4-c]pyrrol-2(1H)-yl)-N-(1-methyl-1H-pyrazol-4-yl)pyrimidin-2-amine], the IC50 in assay [1] is 14 nM; in assay [2], 16 nM; in assay [3] (Homo sapiens), 2870 nM.
Regarding `Cn1cc(Nc2ncc(Cl)c(N3C[C@@H]4CN(Cc5ccno5)C[C@]4(C)C3)n2)cn1` (racemic) [Compound 74, cis-5-chloro-4-(5-(isoxazol-5-ylmethyl)-3a-methylhexahydropyrrolo[3,4-c]pyrrol-2(1H)-yl)-N-(1-methyl-1H-pyrazol-4-yl)pyrimidin-2-amine], the results for the IC50 in assay [1], in assay [2] and in assay [3] (Homo sapiens) were 2.4 nM, 1.6 nM and 209 nM, respectively.
On the same counts, the results for `Cn1cc(Nc2ncc(Cl)c(N3C[C@]4(C)CN(C(=O)C(C)(C)C#N)C[C@]4(C)C3)n2)cn1` [Compound 45, 3-((3aR,6aS)-5-(5-chloro-2-((1-methyl-1H-pyrazol-4-yl)amino)pyrimidin-4-yl)-3a,6a-dimethylhexahydropyrrolo[3,4-c]pyrrol-2(1H)-yl)-2,2-dimethyl-3-oxopropanenitrile] are 19 nM, 12 nM and 5390 nM.
For “4-(3aR,6aS)-5-(isoxazol-5-ylmethyl)-3a,6a-dimetylhexahydropyrrolo[3,4-c]pyrrol-2(1H)-yl)-5-methyl-N-(1-methyl-1H-pyrazol-4-yl)pyrimidin-2-amine [Compound 67]”, the IC50 in assay [1] came out at 2.2 nM; in assay [2], 6 nM; in assay [3] it was 291 nM.
For the compound `Cn1cc(Nc2ncc(Cl)c(N3C[C@H]4CN(C(=O)CC#N)C[C@]4(C)C3)n2)cn1` (racemic) [Compound 100, trans-3-(5-(5-chloro-2((1-methyl-1H-pyrazol-4-yl)amino)pyrimidin-4-yl)-3a-methylhexahydropyrrolo[3,4-c]pyrrol-2(1H)-yl)-3-oxopropanenitrile], the IC50 in assay [1] was 5 nM; in assay [2], 2.2 nM; in assay [3] (Homo sapiens), 763 nM.
The corresponding values for `Cn1cc(Nc2ncc(Cl)c(N3C[C@@H]4CN(C(=O)CC(F)(F)F)C[C@]4(C)C3)n2)cn1` (racemic) [Compound 68, cis-1-(5-(5-chloro-2((1-methyl-1H-pyrazol-4-yl)amino)pyrimidin-4-yl)-3a-methylhexahydropyrrolo[3,4-c]pyrrol-2(1H)-yl)-3,3,3-trifluoropropan-1-one] are 31 nM, 1.4 nM and 330 nM.
For the compound `Cc1cnc(Nc2cnn(C)c2)nc1N1C[C@]2(C)CN(C(=O)[C@@H]3CC3(F)F)C[C@]2(C)C1` [Compound 56, ((S)-2,2-difluorocyclopropyl)((3aR,6aS)-3a,6a-dimethyl-5-(5-methyl-2-((1-methyl-1H-pyrazol-4-yl)amino)pyrimidin-4-yl)hexahydropyrrolo[3,4-c]pyrrol-2(1H)-yl)methanone], the results for the IC50 in assay [1], in assay [2] and in assay [3] (Homo sapiens) were 2.5 nM, 1.7 nM and 505 nM, respectively.
The corresponding values for `Cn1cc(Nc2ncc(Cl)c(N3C[C@]4(C)CN(Cc5cn[nH]c5)C[C@]4(C)C3)n2)cn1` [Compound 79, 4-((3aR,6aS)-5-((1H-pyrazol-4-yl)methyl)-3a,6a-dimethylhexahydropyrrolo[3,4-c]pyrrol-2(1H)-yl)-5-chloro-N-(1-methyl-1H-pyrazol-4-yl)pyrimidin-2-amine] are 40 nM, 51 nM and 3970 nM.
The corresponding values for `Cn1cc(Nc2ncc(Cl)c(N3C[C@@H]4CN(C(=O)C5CC5(F)F)C[C@]4(C)C3)n2)cn1` (mixture of isomers) [Compound 65, cis-(5-(5-chloro-2-((1-methyl-1H-pyrazol-4-yl)amino)pyrimidin-4-yl)-3a-methylhexahydropyrrolo[3,4-c]pyrrol-2(1H)-yl)((S)-2,2-difluorocyclopropyl)methanone] are 1.3 nM, 0.5 nM and 136 nM.
On to `CCC(=O)N1C[C@@]2(C)CN(c3nc(Nc4cnn(C)c4)ncc3Cl)C[C@@]2(C)C1` [Compound 36, 1-((3aR.,6aS)-5-(5-chloro-2-((1-methyl-1H-pyrazol-4-yl)amino)pyrimidin-4-yl)-3a,6a-dimethylhexahydropyrrolo[3,4-c]pyrrol-2(1H)-yl)propan-1-one], for which the results for the IC50 in assay [1], in assay [2] and in assay [3] (Homo sapiens) were 4.1 nM, 1.8 nM and 592 nM, respectively.
As for `Cn1cc(Nc2ncc(Cl)c(N3C[C@]4(C)CN(Cc5cc[nH]n5)C[C@]4(C)C3)n2)cn1` [Compound 81, 4-((3aR,6aS)-5-((1H-pyrazol-3-yl)methyl)-3a,6a-dimethylhexahydropyrrolo[3,4-c]pyrrol-2(1H)-yl)-5-chloro-N-(1-methyl-1H-pyrazol-4-yl)pyrimidin-2-amine], the IC50 in assay [1] was determined as 16 nM; in assay [2], 50 nM; in assay [3] (Homo sapiens), 3970 nM.
The corresponding values for `Cn1cc(Nc2ncc(Cl)c(N3C[C@@H]4CN(C(=O)CC#N)C[C@]4(C)C3)n2)cn1` [Compound 88, 3-((3aS,6aR)-5-(5-chloro-2-((1-methyl-1H-pyrazol-4-yl)amino)pyrimidin-4-yl)-3a-methylhexahydropyrrolo[3,4-c]pyrrol-2(1H)-yl)-3-oxopropanenitrile] are 0.5 nM, 0.2 nM and 67 nM.
In the case of `Cn1cc(Nc2ncc(Cl)c(N3C[C@H]4CN(C(=O)[C@@H]5CC5(F)F)C[C@H]4C3)n2)cn1` [Compound 27, ((3aR,6aS)-5-(5-chloro-2-((1-methyl-1H-pyrazol-4-yl)amino)pyrimidin-4-yl)hexahydropyrrolo[3,4-c]pyrrol-2(1H)-yl)((S)-2,2-difluorocyclopropyl)methanone], the IC50 in assay [1] stood at 15 nM; in assay [2], 16 nM; in assay [3] (Homo sapiens) it was 847 nM.
On the same counts, the results for `CCS(=O)(=O)N1C[C@]2(C)CN(c3nc(Nc4cnn(C)c4)ncc3Cl)C[C@]2(C)C1` [Compound 41, 5-chloro-4-((3aR,6aS)-5-(ethylsulfonyl)-3a,6a-dimethylhexahydropyrrolo[3,4-c]pyrrol-2(1H)-yl)-N-(1-methyl-1H-pyrazol-4-yl)pyrimidin-2-amine] are 1.7 nM, 1.3 nM and 635 nM.
